Assay results from patent US20100193777A1, “METHOD OF PRODUCING A DESUBSTITUTED COMPOUND, ORGANIC SEMICONDUCTOR FILM AND METHOD OF PRODUCING THE SAME” (FUJIFILM Corporation, priority 2007, published 2010).

Tests used:
Assay type in all cases: physicochemical
[1] = Solubility in a solvent (chloroform or water); conditions: for solubility in water after heating: after heated at 250° C.
Experimental: In the first embodiment of the present invention, the term “solvent-soluble (being soluble in a solvent)” means to show a solubility of 0.1% by mass or more, more preferably 0.5% by mass or more, and further preferably 1% by mass or more, with respect to a solvent in interest when the solvent to which a compound in interest is added is heated under reflux and then cooled down to room temperature. Further, the term “solvent-insolubilization (to make a compound insoluble in a solvent)” means to reduce the solubility by one digit figure or more than the solvent-soluble state. Specifically, with respect to a solvent, when the solvent is heated under reflux and then cooled down to room temperature, it is preferable to reduce from the solubility of 0.1% by mass or more (solvent-soluble) to the solubility of 0.01% by mass or less, further preferably from the solubility of 0.5% by mass or more (solvent-soluble) to the solubility of 0.05% by mass or less, and especially preferably from the solubility of 1% by mass or more (solvent-soluble) to the solubility of less than 0.1% by mass. Further, the term “solvent-insoluble (being insoluble in a solvent)” means to show solubility of less than 0.1% by mass, preferably 0.05% by mass or less, and further preferably 0.01% by mass or less, with respect to a solvent in interest when the solvent to which a compound in interest is added is heated under reflux and then cooled down to room temperature.
There is no particular restriction in the kind of solvent when degrees of the above-described “solvent-soluble” and “solvent-insoluble” are defined. Accordingly, both “solvent-soluble” and “solvent-insoluble” may be defined in terms of solvent and temperature each of which is actually used. Alternatively, for example, these properties may be specified as solubility (25° C.) with respect to water (distilled water). However, the solvent used in the first embodiment of the present invention is not limited by the above.

[2] = TG/DTA thermal analysis (rate of decrease in mass on heating)
Experimental: The thermal analysis (TG/DTA measurement) of the thus-produced Exemplified compound (1) was conducted. The TG/DTA measurement was conducted at the rate of temperature increase of 10° C./min in a range of 30° C. to 550° C. under a current of nitrogen gas (flow rate: 200 ml/min) using EXSTAR 6000 (trade name, manufactured by Seiko Instruments Inc.), to determine a rate of decrease in mass. FIG. 1 is a graph showing TG/DTA measurement results of the Exemplified compound (1). Herein, in each of Examples and Comparative Examples described below, the measurement of TG was conducted using the same apparatus and under the same conditions as described above.
In FIG. 1, the uppermost curve indicates the change of mass with respect to temperature (TG.). The bottom curve indicates the heat going in and out with respect to temperature (enthalpy change) (DTA). The middle curve indicates the amount of change of TG (differential value) per time (DTG).

[3] = Light resistance test of dye films; conditions: absorbance at maximum absorption wavelength, 48 h light resistance test
Experimental: The above-described thin films 1 to 4 were each stored for 24 hours under the conditions of 23° C. and 50% RH. Thereafter, these thin films were each subjected to a light resistance test using a merry-go-round type apparatus for testing of light resistance (Cell Testing Apparatus III, trade name, manufactured by Eagle Engineering Co., Ltd., with a filter WG 320, trade name, manufactured by Schott AG). Absorption spectra of the dye films just before the light resistance test and the dye films after the light resistance test for 48 hours were measured using UV-1600 PC (trade name, manufactured by Shimadzu Corporation). A change of absorbance at the maximum absorption wavelength was read from each absorption spectrum.

| Compound | solubility in water [1] | solubility in a solvent such as chloroform [1] | also measured |
| --- | --- | --- | --- |
| copper phthalocyanine-tetrasulfonic acid tetrasodium salt | soluble |  | temperature of desubstitution of the substituent ([2]; from TG and MS of heated residue): higher than 400 °C; reduction in weight in TG on heating ([2]; heated up to 400° C., after initial loss of solvent or water): did not cause any reduction in weight |
| zinc phthalocyanine-tetrasulfonic acid [Exemplified compound (53)] | soluble |  | solubility in water after heating [1]: soluble |
| metal-free phthalocyanine-tetrasulfonic acid [Exemplified compound (54)] | soluble |  | solubility in water after heating [1]: soluble |
| CC(C)(C)OC(=O)N1C(=O)C2=C(c3ccccc3)N(C(=O)OC(C)(C)C)C(=O)C2=C1c1ccccc1 [Compound 1 for comparison] |  |  | Residual rate after 48 hours ([3]; dye film after heating): 91%; Residual rate after 48 hours ([3]; dye film before heating): 1.9% |

More lines, main results first:

| solubility in water [1] | solubility in a solvent such as chloroform [1] | Compound | also measured |
| --- | --- | --- | --- |
| so low that a film was not formed | so low that a film was not formed | [Zn+2].c1ccc2c(c1)-c1nc-2nc2[n-]c(nc3nc([n-]c4nc(n1)-c1ccccc1-4)-c1ccccc1-3)c1ccccc21 [zinc phthalocyanine] |  |
|  | so low that a film was not formed | [Cu+2].c1ccc2c(c1)-c1nc-2nc2[n-]c(nc3nc(nc4[n-]c(n1)c1ccccc41)-c1ccccc1-3)c1ccccc21 [cupper phthalocyanine] |  |
| so low that a film was not formed | so low that a film was not formed | c1ccc2c(c1)-c1nc-2nc2[nH]c(nc3nc(nc4[nH]c(n1)c1ccccc41)-c1ccccc1-3)c1ccccc21 [metal-free phthalocyanine] |  |
